Experimental data: patent US6828462B2, “Unsaturated 1-amino-alkylcyclohexane NMDA, 5HT3, and neuronal nicotinic receptor antagonists” (Merz Pharma GmbH & Co. KGAA, priority 2001, dated 2004)
Like-named read-outs stand apart in the source and are kept apart here.

What was measured:
[1] = test system: myorelaxation (traction reflex); experiment: Traction reflex test, myorelaxant action; assay type: in vivo, mice; conditions: ED50 myorelaxation divided by ED50 MES
Protocol: (§1) NMR female mice (18-28 g) housed 5 per cage were used for the maximal electroshock (MES) and motor impairment tests. All animals were kept with water and food ad libitum under a 12 hour light-dark cycle (light on at 6 a.m.) and at a controlled temperature (20±0.5C). All experiments were performed between 10 a.m. and 5 p.m. Tested agents were injected 30 min. i.p. before the induction of convulsions if not stated otherwise (see below). All compounds were dissolved in 0.9% saline.
(§2) The MES test was performed together with tests for myorelaxant action (traction reflex) and motor coordination (rotarod). For the traction reflex test mice were placed with their forepaws on a horizontal rod and were required to place all 4 paws on the wire within 10 seconds. To test ataxia (motor coordination) mice were placed on an accelerating rotarod and were required to remain on the rod for 1 minute. […] These tests were followed by MES (100 Hz, 0.5 second shock duration, 50 mA shock intensity, 0.9 ms impulse duration, Ugo Basile) applied through corneal electrodes. The presence of tonic convulsions was scored (tonic extension of hind paws with minimum angle to the body of 90). The aim was to obtain ED50s for all parameters scored (anticonvulsive activity and motor side effects) with use of the Litchfield Wilcoxon test for quantal dose responses. Division of the ED50 for side effects (ataxia or myorelaxation) by the ED50 for antagonism of electroshock convulsions was used as a therapeutic index (TI).
(§3) 4-7 doses of antagonists were tested in each of the in vivo tests (5-8 animals per dose) to allow calculation of graded ED50s according to probit analysis (Litchfield and Wilcoxon) with correction for 0% to 100% effects. ED50s are presented with 95% confidence limits (Cl). Pearson product moment correlation analysis (Sigma Stat, Jandel Scientific) was used to compare in vitro potencies and in vivo anticonvulsant activity.

[2] = Traction reflex test, myorelaxant action; assay type: in vivo, mice; conditions: mouse, in vivo, ip; NMR female mice, i.p., traction reflex; read-out: Myorelaxation ED50
Protocol: as §1, §2, §3

[3] = molecular target: NMDA receptor ([3H]-(+)-MK-801 site) (Rattus norvegicus, UniProt P35439); experiment: [3H]-(+)-MK-801 receptor binding, rat cortex membranes
NMDA receptors = molecular target: T1, NMDA receptors (Rattus norvegicus, UniProt P35439); experiment: Patch clamp, NMDA-induced currents in hippocampal neurones; assay type: cell-based
T1 construct: Patch clamp recordings were made from these neurones; endogenous in cells; host or cells: primary cultured hippocampal neurones from rat embryos (E20 to E21)

ataxia (rotarod) = experiment: Accelerating rotarod test, ataxia (motor coordination); assay type: in vivo, mice; conditions: ED50 ataxia divided by ED50 MES
Protocol: as §1, §2, §3

[4] = as above; assay type: in vivo, mice; conditions: mouse, in vivo, ip; NMR female mice, accelerating rotarod
Protocol: as §1, §2, §3

[5] = test system: maximal electroshock (MES) tonic convulsions; experiment: Maximal electroshock (MES) test, anticonvulsive activity; assay type: in vivo, mice; conditions: Mus musculus, ip, read-out: MES ED50
Protocol: as §1, §2, §3

NR1a/2A receptors = molecular target: T2, NR1a/2A receptors (Homo sapiens, UniProt Q05586+Q12879); experiment: NMDA receptor blockade in Xenopus oocytes, two-electrode voltage clamp; assay type: cell-based; conditions: Xenopus oocytes expressing NR1a/2A
T2 construct: expressed in transfected cells; host or cells: Xenopus laevis oocytes injected with subunit RNA
T2 sequence (Q12879 23-1464, other chains not shown): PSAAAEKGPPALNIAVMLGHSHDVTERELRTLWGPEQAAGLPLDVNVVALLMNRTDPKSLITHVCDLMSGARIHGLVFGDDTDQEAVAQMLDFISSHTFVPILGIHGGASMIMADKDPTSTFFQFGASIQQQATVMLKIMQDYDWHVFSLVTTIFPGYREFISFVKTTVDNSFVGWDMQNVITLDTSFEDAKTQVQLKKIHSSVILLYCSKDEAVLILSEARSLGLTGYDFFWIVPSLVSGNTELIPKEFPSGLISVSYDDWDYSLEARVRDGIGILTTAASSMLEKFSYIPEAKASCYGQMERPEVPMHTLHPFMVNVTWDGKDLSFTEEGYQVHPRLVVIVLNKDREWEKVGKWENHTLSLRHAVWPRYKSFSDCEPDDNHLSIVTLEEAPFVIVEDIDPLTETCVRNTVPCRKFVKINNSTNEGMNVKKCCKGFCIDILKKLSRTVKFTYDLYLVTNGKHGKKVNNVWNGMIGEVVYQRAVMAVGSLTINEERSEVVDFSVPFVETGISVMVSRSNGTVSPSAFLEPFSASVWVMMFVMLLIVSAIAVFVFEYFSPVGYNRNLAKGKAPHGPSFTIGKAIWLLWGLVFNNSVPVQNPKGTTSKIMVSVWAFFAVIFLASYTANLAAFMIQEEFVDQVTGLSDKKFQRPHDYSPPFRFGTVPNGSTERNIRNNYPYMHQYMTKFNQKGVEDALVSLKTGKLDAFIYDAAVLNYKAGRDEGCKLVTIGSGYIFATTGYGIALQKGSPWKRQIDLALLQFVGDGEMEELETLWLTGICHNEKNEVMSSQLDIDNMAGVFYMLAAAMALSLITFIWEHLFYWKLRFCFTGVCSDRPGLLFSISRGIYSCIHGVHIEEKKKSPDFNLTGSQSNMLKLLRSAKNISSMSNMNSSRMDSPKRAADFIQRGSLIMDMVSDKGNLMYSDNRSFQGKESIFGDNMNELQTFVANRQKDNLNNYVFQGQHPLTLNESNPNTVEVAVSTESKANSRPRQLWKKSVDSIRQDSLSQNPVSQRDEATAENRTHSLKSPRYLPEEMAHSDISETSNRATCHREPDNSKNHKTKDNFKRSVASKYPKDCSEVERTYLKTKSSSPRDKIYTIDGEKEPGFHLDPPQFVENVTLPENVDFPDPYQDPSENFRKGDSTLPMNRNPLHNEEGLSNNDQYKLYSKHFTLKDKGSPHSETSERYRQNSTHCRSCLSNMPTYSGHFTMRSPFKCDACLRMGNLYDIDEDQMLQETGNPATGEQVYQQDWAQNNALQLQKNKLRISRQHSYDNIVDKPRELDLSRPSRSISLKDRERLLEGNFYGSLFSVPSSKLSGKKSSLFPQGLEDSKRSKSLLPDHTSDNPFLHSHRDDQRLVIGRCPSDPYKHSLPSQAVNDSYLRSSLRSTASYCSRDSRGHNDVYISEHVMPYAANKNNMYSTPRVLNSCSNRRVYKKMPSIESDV
Protocol: Mature female Xenopus laevis were anaesthetized in 0.2% Tricaine on ice for 15 min prior to surgery. Oocytes were removed and incubated in 2 mg/ml collagenase (type II) in Ca^2+-free oocyte Ringer solution (82.5 mM NaCl, 2 mM KCl, 2 mM MgCl2, 5 mM HEPES, pH 7.5) for 30 min. at room temperature and washed thoroughly with OR-2 (100 mM NaCl, 2 mM KCl, 1 mM MgCl2, 2 mM CaCl2, 5 mM HEPES, pH 7.5). The remaining follicle cell layer was removed manually with fine forceps and the oocytes were kept in OR-2. The RNA was dissolved in DEPC-treated, sterile distilled water. RNA for the NMDA NR1a subunit was mixed 1:1 with RNA for the NR2A subunit. Likewise neuronal nicotinic α4 RNA was mixed 1:1 with RNA for the β2 subunit. […]
Only results from stable cells were accepted for inclusion in the final analysis i.e. showing at least 50% recovery of responses to NMDA following removal of the antagonist tested. […] All antagonists were assessed at steady-state blockade with 6 to 7 concentrations on at least 4 cells. […]
Kinetic experiments were performed by applying various concentrations of unsaturated amino-alkyl-cyclohexanes (normally 5 in a log 3 dosing regime) for 10-20 seconds in the continuous presence of glutamate (100 μM and glycine 10 μM) for 90-180 seconds in Xenopus oocytes expressing NR1a/2A receptors. […] Voltage-dependency was then determined by comparing the glutamate and glutamate plus antagonist curves. […]

[6] = Table 1, mean, N=6, read-out: NMDA IC50
[7] = NMR female mice, i.p. 30 min before convulsions

Row | ED50 at 30 min [2] [mg/kg] | Ki [3] [µM] | IC50 (NMDA receptors; [6]) [µM] | IC50 (NR1a/2A receptors; glutamate 100 μM, glycine 10 μM, -70 mV) [µM] | Hill (NR1a/2A receptors; logistic fit of the concentration-blockade curve) | use- and voltage-dependency of blockade (NMDA receptors; hippocampal neurones, NMDA-induced currents) | Steady-state inward current responses to NMDA (NMDA receptors; hippocampal neurones, NMDA 200 μM with glycine 1 μM at -70 mV) | SMILES | Therapeutic index (myorelaxation ED50 / MES ED50) [1] | Therapeutic index (ataxia ED50 / MES ED50) (ataxia (rotarod)) | ED50 at 30 min [4] [mg/kg] | ED50 [5, 7] [mg/kg] | IC50 (NMDA receptors) [µM] | ED50 [5] [mg/kg]
1 | 39.8 | 9.35 | 12.6 | – | – | – | – | C=CCC1(N)CC(C)(C)CC(C)(C)C1 [MRZ 2005, 1-Allyl-3,3,5,5-tetramethylcyclohexanamine] | 1.1 | 1.3 | 49.3 | 37.3 | – | –
2 | 13.9 | 3.12 | 0.1 | – | – | – | – | C=CC1(CCN)CC(C)(C)CC(C)(C)C1 [MRZ 2014, 2-(1-Vinyl-3,3,5,5-tetramethylcyclohexyl-1)ethylamine] | 0.3 | 0.5 | 25.8 | 47.8 | – | –
3 | 16.5 | 2.15 | 0.33 | – | – | – | – | CC1(C)CC(=CCN)CC(C)(C)C1 [MRZ 2/1021, 2-(3,3,5,5-Tetramethylcyclohexylidene)ethanamine] | 0.6 | 0.8 | 23.1 | 29.5 | – | –
4 | 12.8 | 1.18 | 3.28 | 1.99 | 0.75 | clear use- and voltage-dependency | antagonized | C=CC1(N)CC(C)(C)CC(C)(C)C1 [MRZ 2/759, 1-Ethenyl-3,3,5,5-tetramethylcyclohexylamine] | 0.9 | 1.0 | 15 | 14.8 | – | –
5 | 29.4 | 20.2 | 37.1 | – | – | – | – | CC1(C)CC(=CCCN)CC(C)(C)C1 [MRZ 2018, 3-(3,3,5,5-Tetramethylcyclohexylidene)propanamine] | 0.4 | 0.3 | 26.7 | 78.5 | – | –
6 | 26.7 | – | 29.6 | – | – | – | – | C=CCNC1(C)CC(C)(C)CC(C)(C)C1 [MRZ 2026, N-Allyl-1,3,3,5,5-pentamethylcyclohexanamine] | 1.1 | 1.5 | 37.6 | 25.4 | – | –
7 | 35.6 | 6.79 | 1.19 | – | – | – | – | C=CCC(CN)C1(C)CC(C)(C)CC(C)(C)C1 (centres unmarked) [MRZ 2017, 2-(1,3,3,5,5-Pentamethylcyclohexyl)-4-pentenylamine] | 1.0 | 0.9 | 33.7 | 36.9 | – | –

Row | SMILES | ED50 at 30 min [2] [mg/kg] | Ki [3] [µM] | IC50 (NMDA receptors; [6]) [µM] | IC50 (NR1a/2A receptors; glutamate 100 μM, glycine 10 μM, -70 mV) [µM] | Hill (NR1a/2A receptors; logistic fit of the concentration-blockade curve) | use- and voltage-dependency of blockade (NMDA receptors; hippocampal neurones, NMDA-induced currents) | Steady-state inward current responses to NMDA (NMDA receptors; hippocampal neurones, NMDA 200 μM with glycine 1 μM at -70 mV) | Therapeutic index (myorelaxation ED50 / MES ED50) [1] | Therapeutic index (ataxia ED50 / MES ED50) (ataxia (rotarod)) | ED50 at 30 min [4] [mg/kg] | ED50 [5, 7] [mg/kg] | IC50 (NMDA receptors) [µM] | ED50 [5] [mg/kg]
8 | C=CC1(NC)CC(C)(C)CC(C)(C)C1 [MRZ 2021, N-Methyl-1-ethenyl-3,3,5,5-tetramethylcyclohexylamine] | 21.4 | 6.54 | – | – | – | – | – | 1.6 | 1.8 | 24.7 | – | 12.7 | 13.6
